# Experimental data published in patent publication US11882827B2, “Agricultural mixtures comprising carboxamide compound” (BASF AGROCHEMICAL PRODUCTS B.V., priority 2013, dated 2024).
# Where two headings read alike, the source gives them in different places.
# Columns and labels:
# Type in all cases: cell-based
# Details in all cases: single active, 7 days after inoculation
# Microdochium nivale = assay: Microtest, activity against Microdochium nivale
# Pyrenophora teres = assay: Microtest, activity against Pyrenophora teres
# Rhizoctonia solani = assay: Microtest, activity against Rhizoctonia solani
# Pyricularia oryzae = system: Pyricularia oryzae
# Septoria tritici = assay: Microtest, activity against leaf blotch on wheat caused by Septoria tritici
# Leptosphaeria nodorum = assay: Microtest, activity against wheat leaf spots caused by Leptosphaeria nodorum
smiles,measurement,setting,value
Fc1ccc([C@]2(Cn3cncn3)O[C@H]2c2ccccc2Cl)cc1 [Epoxiconazol],Observed efficacy,Microdochium nivale; 0.004 ppm,8
same,Observed efficacy,Microdochium nivale; 0.016 ppm,29
same,Observed efficacy,Pyrenophora teres; 0.016 ppm,0
same,Observed efficacy,Rhizoctonia solani; 0.001 ppm,0
same,Observed efficacy,Rhizoctonia solani; 0.004 ppm,0
same,Observed efficacy,Rhizoctonia solani; 0.016 ppm,24
same,Observed efficacy,Pyricularia oryzae; 0.063 ppm,1
same,Observed efficacy,Pyricularia oryzae; 0.25 ppm,28
same,Observed efficacy,Septoria tritici; 0.016 ppm,7
CC1(C)CCC(=Cc2ccc(Cl)cc2)C1(O)Cn1cncn1 (centres unmarked) [Triticonazol],Observed efficacy,Septoria tritici; 0.063 ppm,5
COC(=O)N(OC)c1ccccc1COc1ccn(-c2ccc(Cl)cc2)n1 [Pyraclostrobin],Observed efficacy,Leptosphaeria nodorum; 0.25 ppm,72
same,Observed efficacy,Pyrenophora teres; 0.016 ppm,34
COCC(=O)N(c1c(C)cccc1C)C(C)C(=O)OC (centres unmarked) [Metalaxyl],Observed efficacy,Septoria tritici; 1 ppm,5
same,Observed efficacy,Septoria tritici; 4 ppm,5
CN(C(=O)c1ccccc1)c1cccc(C(=O)Nc2c(Br)cc(C(F)(C(F)(F)F)C(F)(F)F)cc2C(F)(F)F)c1F [carboxamide compound of formula I],Observed efficacy,Leptosphaeria nodorum; 4 ppm,1
same,Observed efficacy,Pyrenophora teres; 63 ppm,20
same,Observed efficacy,Septoria tritici; 63 ppm,11
